In one experiment the test system is HL-60 (leukemia) cells. Description: MTT cytotoxicity assay, HL-60. It counts as cell-based. Conditions: Homo sapiens, 48 h treatment, read-out: Anticancer activity IC50 HL-60. The procedure:
(§1) Compounds proposed in present invention were evaluated for their cytotoxic effect against panel of 5 cancer cell line viz. Panc-1 (pancreatic cancer), MCF-7 (breast cancer), PC-3 (prostate), HL-60 (leukemia) and A-375 (melanoma) using MTT assay. In each well of a 96-well plate, 3×10^3 cells were grown in 100 μL of medium. After 24 h, each test molecules were added to achieve a final concentration of 10 to 0.01 μmol/L, respectively. After 48 h of treatment, 20 μL of 2.5 mg/mL MTT (Organics Research, Inc.) solution in phosphate buffer saline was added to each well. […], supernatant was removed and formazan crystals were dissolved in 200 μL of DMSO. Absorbance was then measured at 570 nm using an absorbance plate reader (Bio-Rad Microplate Reader). Data are expressed as the percentage of viable cells in treated relative to non-treated conditions. Each experiment was repeated thrice and data was expressed as mean±SD of three independent experiments (Mordant, P. et al., Mol. Cancer Ther. 2010, 9, 358).

The test system of experiment [1] is MCF-7 (breast cancer) cells. Description: MTT cytotoxicity assay, MCF-7. Format: cell-based. Conditions: Homo sapiens, MCF7, 48 h treatment, read-out: Anticancer activity IC50 MCF-7. The procedure:
as §1
(Formazan colour is commonly taken as a measure of viable cells.)

For another experiment, the target named is PI3K-γ (Homo sapiens, UniProt P48736). Put plainly: PI3K-γ assay (ADP-Glo). Format: biochemical. The following applies: for IC50: read-out: PI3K inhibition IC50 -γ; for Fold-selectivity for PI3K-α with respect to -γ: α versus γ isoform. For orientation: ADP-Glo first removes unused ATP, then detects ADP through luciferase.
Experiment [2] has as its system PC-3 (prostate cancer) cells. Put plainly: MTT cytotoxicity assay, PC-3. It counts as cell-based. The following applies: Homo sapiens, 48 h treatment, read-out: Anticancer activity IC50 PC-3. The procedure: as §1
Another experiment deals with PI3K-α (Homo sapiens, UniProt P42336). Put plainly: PI3K-α assay (ADP-Glo). Format: biochemical. The following applies: for % Inhibition of PI3K-α at 0.5 μM / inhibition at 0.5 µM: preliminary screening; for IC50: read-out: PI3K inhibition IC50 -α.
A further experiment has as its system A-375 (melanoma) cells. Description: MTT cytotoxicity assay, A375. Format: cell-based. Conditions: Homo sapiens, 48 h treatment, read-out: Anticancer activity IC50 A375. The procedure: as §1
The subject of experiment [3] is Panc-1 (pancreatic cancer) cells. Put plainly: MTT cytotoxicity assay, Panc-1. Format: cell-based. Conditions: Homo sapiens, 48 h treatment, read-out: Anticancer activity IC50 Panc-1. The procedure: as §1
For the next experiment, the target named is PI3K-β (Homo sapiens, UniProt P42338). Description: PI3K-β assay (ADP-Glo). Conditions: for IC50: read-out: PI3K inhibition IC50 -β; for Fold-selectivity for PI3K-α with respect to -β: α versus β isoform. Format: biochemical.
A further experiment concerns the target PI3K-δ (Homo sapiens, UniProt O00329). Description: PI3K-δ assay (ADP-Glo). It counts as biochemical. Conditions: for IC50: read-out: PI3K inhibition IC50 -δ; for Fold-selectivity for PI3K-α with respect to -δ: α versus δ isoform.

Usually IC50 stands for the point on the concentration scale where inhibition reaches its midpoint. For orientation: inhibition means how much of the control response was suppressed. Low readings indicate a weak effect, high ones a strong effect.

Molecules are shown by their SMILES.

Sequence of PI3K-δ (O00329 whole entry, species assumed, canonical isoform): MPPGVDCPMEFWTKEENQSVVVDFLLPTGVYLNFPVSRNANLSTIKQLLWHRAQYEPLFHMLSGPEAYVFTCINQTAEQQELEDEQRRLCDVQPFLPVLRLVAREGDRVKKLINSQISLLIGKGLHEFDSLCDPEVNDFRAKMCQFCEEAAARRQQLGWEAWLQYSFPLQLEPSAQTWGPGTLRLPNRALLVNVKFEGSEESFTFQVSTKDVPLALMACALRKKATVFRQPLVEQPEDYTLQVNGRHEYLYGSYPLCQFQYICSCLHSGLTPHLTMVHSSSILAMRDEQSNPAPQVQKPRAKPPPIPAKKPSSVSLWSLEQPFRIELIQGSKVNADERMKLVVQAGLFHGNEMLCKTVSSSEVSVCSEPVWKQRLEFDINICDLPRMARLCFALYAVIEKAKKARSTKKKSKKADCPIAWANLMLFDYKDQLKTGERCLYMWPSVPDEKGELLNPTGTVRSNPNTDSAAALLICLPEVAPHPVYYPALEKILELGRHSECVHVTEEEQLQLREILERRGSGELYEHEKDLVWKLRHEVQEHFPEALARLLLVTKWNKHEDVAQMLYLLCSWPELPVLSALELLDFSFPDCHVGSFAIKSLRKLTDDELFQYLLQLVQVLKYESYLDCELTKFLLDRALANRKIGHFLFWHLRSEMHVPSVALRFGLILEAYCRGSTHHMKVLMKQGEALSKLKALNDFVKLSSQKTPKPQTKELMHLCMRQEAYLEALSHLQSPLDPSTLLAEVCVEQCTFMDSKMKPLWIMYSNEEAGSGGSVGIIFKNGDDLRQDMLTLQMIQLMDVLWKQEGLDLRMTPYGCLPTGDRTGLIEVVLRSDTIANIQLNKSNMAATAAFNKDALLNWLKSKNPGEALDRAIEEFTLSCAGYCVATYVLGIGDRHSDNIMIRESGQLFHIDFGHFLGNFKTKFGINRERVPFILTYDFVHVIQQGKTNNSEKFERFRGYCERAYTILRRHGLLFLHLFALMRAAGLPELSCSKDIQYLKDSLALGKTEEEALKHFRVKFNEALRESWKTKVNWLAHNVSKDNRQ
Sequence of PI3K-δ (P27986 whole entry partner, species assumed, canonical isoform): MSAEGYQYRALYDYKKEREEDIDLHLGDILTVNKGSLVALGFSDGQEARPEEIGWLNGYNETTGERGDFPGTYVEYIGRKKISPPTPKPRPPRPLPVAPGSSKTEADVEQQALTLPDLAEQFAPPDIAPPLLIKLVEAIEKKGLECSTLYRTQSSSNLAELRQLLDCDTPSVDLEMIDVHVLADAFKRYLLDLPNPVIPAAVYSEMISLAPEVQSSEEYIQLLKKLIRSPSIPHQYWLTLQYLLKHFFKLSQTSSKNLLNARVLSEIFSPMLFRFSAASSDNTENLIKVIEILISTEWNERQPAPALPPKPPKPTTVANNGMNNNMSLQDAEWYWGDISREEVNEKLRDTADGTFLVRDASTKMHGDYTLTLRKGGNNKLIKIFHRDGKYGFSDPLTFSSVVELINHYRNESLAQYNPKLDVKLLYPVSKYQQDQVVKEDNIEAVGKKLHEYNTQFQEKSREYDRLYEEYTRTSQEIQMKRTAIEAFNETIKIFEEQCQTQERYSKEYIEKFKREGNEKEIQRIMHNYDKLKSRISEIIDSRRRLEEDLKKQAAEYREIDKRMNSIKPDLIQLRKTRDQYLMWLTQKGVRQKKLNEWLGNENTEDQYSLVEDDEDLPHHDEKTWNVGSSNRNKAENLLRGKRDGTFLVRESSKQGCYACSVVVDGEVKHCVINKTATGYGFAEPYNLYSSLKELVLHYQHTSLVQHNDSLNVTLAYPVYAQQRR
Sequence of PI3K-β (P42338 whole entry, species assumed, canonical isoform): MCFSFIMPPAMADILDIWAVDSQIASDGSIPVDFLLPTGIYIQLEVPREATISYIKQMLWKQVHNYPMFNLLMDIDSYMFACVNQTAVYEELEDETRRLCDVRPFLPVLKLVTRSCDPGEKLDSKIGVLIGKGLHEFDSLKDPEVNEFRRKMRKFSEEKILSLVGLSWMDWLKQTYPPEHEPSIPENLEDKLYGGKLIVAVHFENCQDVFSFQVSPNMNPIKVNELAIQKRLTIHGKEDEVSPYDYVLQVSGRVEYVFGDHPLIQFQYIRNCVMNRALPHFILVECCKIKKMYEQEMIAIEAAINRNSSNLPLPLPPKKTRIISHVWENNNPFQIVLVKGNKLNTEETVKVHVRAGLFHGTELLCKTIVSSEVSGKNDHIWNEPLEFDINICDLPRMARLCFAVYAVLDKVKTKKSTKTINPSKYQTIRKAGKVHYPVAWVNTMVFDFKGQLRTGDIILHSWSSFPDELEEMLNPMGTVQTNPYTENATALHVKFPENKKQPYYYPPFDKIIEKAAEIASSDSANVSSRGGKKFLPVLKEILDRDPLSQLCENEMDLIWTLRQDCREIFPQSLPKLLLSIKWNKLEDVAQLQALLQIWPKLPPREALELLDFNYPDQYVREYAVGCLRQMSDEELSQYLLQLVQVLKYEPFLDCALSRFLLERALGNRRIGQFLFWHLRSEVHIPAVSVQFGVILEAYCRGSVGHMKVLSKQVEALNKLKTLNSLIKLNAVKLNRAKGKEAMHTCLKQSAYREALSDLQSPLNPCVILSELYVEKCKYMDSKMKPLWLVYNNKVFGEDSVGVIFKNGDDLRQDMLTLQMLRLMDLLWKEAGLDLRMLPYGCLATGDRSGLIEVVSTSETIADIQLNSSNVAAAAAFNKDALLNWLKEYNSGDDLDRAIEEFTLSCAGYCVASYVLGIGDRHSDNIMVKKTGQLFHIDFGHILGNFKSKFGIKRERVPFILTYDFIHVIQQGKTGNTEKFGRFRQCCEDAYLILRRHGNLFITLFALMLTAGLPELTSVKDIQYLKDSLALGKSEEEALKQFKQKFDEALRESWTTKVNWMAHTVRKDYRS
Sequence of PI3K-β (P27986 whole entry partner, species assumed, canonical isoform): as the sequence (P27986 whole entry partner, species assumed, canonical isoform) above
Sequence of PI3K-α (P42336 whole entry): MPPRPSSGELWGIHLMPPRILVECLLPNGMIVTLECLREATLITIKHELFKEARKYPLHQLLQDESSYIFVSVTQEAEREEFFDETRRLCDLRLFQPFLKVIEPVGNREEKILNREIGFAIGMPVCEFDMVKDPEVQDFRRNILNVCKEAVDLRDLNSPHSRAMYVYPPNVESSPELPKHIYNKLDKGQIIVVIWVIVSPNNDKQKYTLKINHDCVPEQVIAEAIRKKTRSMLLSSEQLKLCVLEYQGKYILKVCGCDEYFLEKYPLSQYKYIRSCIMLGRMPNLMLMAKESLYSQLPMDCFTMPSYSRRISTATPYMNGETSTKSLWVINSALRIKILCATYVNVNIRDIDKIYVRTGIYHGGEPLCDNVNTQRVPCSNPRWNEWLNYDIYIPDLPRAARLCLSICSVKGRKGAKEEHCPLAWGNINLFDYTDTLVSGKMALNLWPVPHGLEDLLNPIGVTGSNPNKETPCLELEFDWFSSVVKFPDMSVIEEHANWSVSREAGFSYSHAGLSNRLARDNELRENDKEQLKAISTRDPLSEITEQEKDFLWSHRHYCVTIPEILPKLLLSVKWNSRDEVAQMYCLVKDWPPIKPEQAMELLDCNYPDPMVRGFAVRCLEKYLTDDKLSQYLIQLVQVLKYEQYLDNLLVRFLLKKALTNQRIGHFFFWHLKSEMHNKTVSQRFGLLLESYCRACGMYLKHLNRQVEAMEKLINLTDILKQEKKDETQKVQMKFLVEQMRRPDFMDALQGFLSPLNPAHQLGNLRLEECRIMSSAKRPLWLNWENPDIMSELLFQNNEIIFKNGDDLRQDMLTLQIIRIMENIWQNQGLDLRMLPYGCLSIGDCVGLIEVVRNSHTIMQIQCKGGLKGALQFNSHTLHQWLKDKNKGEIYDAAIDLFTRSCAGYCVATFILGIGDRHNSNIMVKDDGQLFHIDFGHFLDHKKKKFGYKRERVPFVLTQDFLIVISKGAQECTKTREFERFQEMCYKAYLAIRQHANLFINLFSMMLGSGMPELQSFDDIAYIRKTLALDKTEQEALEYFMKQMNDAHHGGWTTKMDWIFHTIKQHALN
Sequence of PI3K-α (P27986 whole entry partner): as the sequence (P27986 whole entry partner, species assumed, canonical isoform) above
Sequence of PI3K-γ (P48736 whole entry, species assumed, canonical isoform): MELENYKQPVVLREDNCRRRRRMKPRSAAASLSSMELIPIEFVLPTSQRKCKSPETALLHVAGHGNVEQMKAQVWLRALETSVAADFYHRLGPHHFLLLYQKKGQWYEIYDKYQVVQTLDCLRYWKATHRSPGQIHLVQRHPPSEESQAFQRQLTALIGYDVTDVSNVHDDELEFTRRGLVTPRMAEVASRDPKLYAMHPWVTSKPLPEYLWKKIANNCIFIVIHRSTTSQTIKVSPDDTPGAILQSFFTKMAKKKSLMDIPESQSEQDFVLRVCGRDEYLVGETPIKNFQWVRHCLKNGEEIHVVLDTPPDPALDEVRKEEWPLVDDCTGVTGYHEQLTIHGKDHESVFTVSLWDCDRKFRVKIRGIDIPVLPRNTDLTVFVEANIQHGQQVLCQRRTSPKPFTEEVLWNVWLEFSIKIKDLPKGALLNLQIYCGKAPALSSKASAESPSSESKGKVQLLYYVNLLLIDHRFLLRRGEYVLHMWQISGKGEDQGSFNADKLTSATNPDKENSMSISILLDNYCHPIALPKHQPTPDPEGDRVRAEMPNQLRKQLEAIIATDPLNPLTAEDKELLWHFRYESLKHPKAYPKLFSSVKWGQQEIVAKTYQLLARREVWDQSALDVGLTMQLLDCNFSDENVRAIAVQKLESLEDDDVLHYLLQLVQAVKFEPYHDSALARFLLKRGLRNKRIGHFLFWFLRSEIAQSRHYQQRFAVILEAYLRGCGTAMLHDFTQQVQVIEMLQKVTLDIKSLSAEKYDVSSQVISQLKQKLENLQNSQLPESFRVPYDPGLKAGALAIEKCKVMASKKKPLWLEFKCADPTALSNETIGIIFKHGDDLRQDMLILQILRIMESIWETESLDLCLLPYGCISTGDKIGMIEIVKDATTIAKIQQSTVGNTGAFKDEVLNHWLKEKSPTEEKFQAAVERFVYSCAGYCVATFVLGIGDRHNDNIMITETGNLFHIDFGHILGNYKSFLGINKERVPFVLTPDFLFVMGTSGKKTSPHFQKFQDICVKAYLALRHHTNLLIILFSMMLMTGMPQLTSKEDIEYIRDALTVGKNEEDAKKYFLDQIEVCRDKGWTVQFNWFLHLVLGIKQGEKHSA
Method for PI3K-α: The enzyme is assayed for 80 min after which 20 ul of ADP-Glo reagent is added. After a further incubation of 40 min, 40 ul of Kinase Detection Buffer is added. The assays are incubated for 40 min and then read on PerkinElmer Envision for 1 sec/well.
Method for PI3K-β: The enzyme is assayed for 60 min after which 20 ul of ADP-Glo reagent is added. After a further incubation of 40 min, 40 ul of kinase detection Buffer is added. The assays are incubated for 40 min and then read on PerkinElmer Envision for 1 sec/well.
Method for PI3K-γ: The enzyme is assayed for 75 min after which 20 ul of ADP-Glo reagent is added. After a further incubation of 40 min, 40 ul of Kinase Detection Buffer is added. The assays are incubated for 40 min and then read on PerkinElmer Envision for 1 sec/well.
Method for PI3K-δ: Compounds proposed in present invention were evaluated for their inhibitory activity on phosphoinositide-3-kinase-alpha and other isoforms (beta, gamma and delta). […] The protocols used for these bioassays are as follows:
The enzyme is assayed for 120 min after which 20 ul of ADP-Glo reagent is added. After a further incubation of 40 min, 40 ul of Kinase Detection Buffer is added. The assays are incubated for 40 min and then read on PerkinElmer Envision for 1 sec/well.

For `N#CCc1ccc(Nc2ncnc3ccc(-c4ccc5c(c4)OCO5)cc23)cc1` [Compound 21, 6-(benzo[d][1,3]dioxol-5-yl)-4-(4-cyanomethyl)phenylamino-quinazoline], the IC50 in the experiment on HL-60 (leukemia) cells was determined as 27 µM; in experiment [1], 34 µM; at PI3K-γ, 0.19 µM; in experiment [2], 7 µM; at PI3K-α, 0.321 µM; with A-375 (melanoma) cells, 24 µM. Also, the IC50 in experiment [3] was 33 µM; at PI3K-β it was above 10 µM; on PI3K-δ it was above 10 µM. Also, the “Fold-selectivity for PI3K-α with respect to -γ” value (from here on “Fold-selectivity for PI3K-α … -γ”) at PI3K-γ was determined as 0.6 fold. The “% Inhibition of PI3K-α at 0.5 μM” value on PI3K-α was determined as 48.6%. This molecule also yielded an inhibition at 0.5 µM against PI3K-α above 40%. In addition, at PI3K-β, the “Fold-selectivity for PI3K-α with respect to -β” value (“Fold-selectivity for PI3K-α … -β” below) was above 31.1 fold. Moreover, the “Fold-selectivity for PI3K-α with respect to -δ” value (“Fold-selectivity for PI3K-α … -δ” below) at PI3K-δ was above 31.1 fold.

On to `C=Cc1ccc(-c2ccc3ncnc(Nc4ccc(CC#N)cc4)c3c2)cc1` [Compound 13, 6-(4-vinylphenyl)-4-(4-cyanomethyl)phenylamino quinazoline], for which the IC50 in the experiment with HL-60 (leukemia) cells was 16 µM; in experiment [1] it was 11 µM; on PI3K-γ, 0.52 µM; in experiment [2], 34 µM; on PI3K-α it was above 10 µM; with A-375 (melanoma) cells it was 27 µM. Further, the IC50 in [3] was 32 µM; at PI3K-β it was above 10 µM; at PI3K-δ it was above 10 µM. Moreover, the inhibition at 0.5 µM on PI3K-α is 36.4%. The “Fold-selectivity for PI3K-α … -β” value at PI3K-β is recorded as 1 fold. Further, the “Fold-selectivity for PI3K-α … -δ” value at PI3K-δ worked out at 1 fold.

In the case of `N#CCc1ccc(Nc2ncnc3ccc(-c4cccc([N+](=O)[O-])c4)cc23)cc1` [Compound 11, 6-(3-nitrophenyl)-4-(4-cyanomethyl)phenylamino quinazoline], the IC50 in the experiment with HL-60 (leukemia) cells was found to be 15 µM; in experiment [1] it was 12 µM; on PI3K-γ, 0.85 µM; in [2], 29 µM; on PI3K-α, 0.451 µM; in the experiment on A-375 (melanoma) cells it was 23 µM. The figures for the IC50 (in experiment [3]; on PI3K-β; at PI3K-δ) were 7 µM, above 10 µM and above 10 µM, respectively. Besides, the “Fold-selectivity for PI3K-α … -γ” value on PI3K-γ is 1.9 fold. This molecule showed an inhibition at 0.5 µM at PI3K-α of 38.1%. Moreover, the “Fold-selectivity for PI3K-α … -β” value at PI3K-β is given as above 22.2 fold. Further, on PI3K-δ, the “Fold-selectivity for PI3K-α … -δ” value was above 22.2 fold.

For the molecule `N#CCc1ccc(Nc2ncnc3ccc(-c4cncc5ccccc45)cc23)cc1` [Compound 29, 6-(isoquinolin-4-yl)-4-(4-cyanomethyl)phenylamino-quinazoline], the IC50 amounted to 10 µM in the experiment with HL-60 (leukemia) cells; 12 µM in [1]; 8.44 µM on PI3K-γ; 9 µM in experiment [2]; 0.15 µM on PI3K-α; 12 µM in the experiment on A-375 (melanoma) cells. For the same molecule, the IC50 in experiment [3] is 9 µM; on PI3K-β, above 20 µM; at PI3K-δ, 0.88 µM. The “Fold-selectivity for PI3K-α … -γ” value at PI3K-γ was determined as 56 fold. Besides, on PI3K-α, the “% Inhibition of PI3K-α at 0.5 μM” value stood at 48.8%. In addition, the inhibition at 0.5 µM against PI3K-α is above 40%. Besides, at PI3K-β (up to 20 μM), the “% inhibition of PI3K-β” value is reported as 0%. Besides, the “Fold-selectivity for PI3K-α … -β” value on PI3K-β is recorded as above 133 fold. The “Fold-selectivity for PI3K-α … -δ” value on PI3K-δ came out at 5.9 fold.

Consider `N#CCc1ccc(Nc2ncnc3ccc(-c4cccc(O)c4)cc23)cc1` [Compound 10, 6-(3-hydroxyphenyl)-4-(4-cyanomethyl)phenylamino quinazoline], for which the IC50 came out at 24 µM in the experiment with HL-60 (leukemia) cells; 15 µM in experiment [1]; 1.84 µM on PI3K-γ; 37 µM in experiment [2]; 0.115 µM at PI3K-α; 28 µM in the experiment on A-375 (melanoma) cells. For the same molecule, the IC50 in experiment [3] amounted to 36 µM; on PI3K-β it was 0.67 µM; at PI3K-δ, 0.27 µM. For the same molecule, the “Fold-selectivity for PI3K-α … -γ” value on PI3K-γ was determined as 16 fold. At PI3K-α, the “% Inhibition of PI3K-α at 0.5 μM” value was 69.9%. At PI3K-β, the “Fold-selectivity for PI3K-α … -β” value is 5.8 fold. For the same molecule, the “Fold-selectivity for PI3K-α … -δ” value on PI3K-δ was 2.3 fold.

As for `CC(=O)Nc1cccc(-c2ccc3ncnc(Nc4ccc(CC#N)cc4)c3c2)c1` [Compound 15, 6-(3-acetylaminophenyl)-4-(4-cyanomethyl)phenylamino quinazoline], the IC50 in the experiment on HL-60 (leukemia) cells worked out at 23 µM; in experiment [1], 14 µM; at PI3K-γ it was 6.95 µM; in [2], 26 µM; at PI3K-α, 0.475 µM; with A-375 (melanoma) cells it was 38 µM. The IC50 in experiment [3] is 38 µM; on PI3K-β it was above 10 µM; at PI3K-δ it was above 10 µM. The “Fold-selectivity for PI3K-α … -γ” value on PI3K-γ was determined as 14.6 fold. The inhibition at 0.5 µM against PI3K-α was 36.8%. In addition, the “Fold-selectivity for PI3K-α … -β” value at PI3K-β is recorded as above 21 fold. The “Fold-selectivity for PI3K-α … -δ” value at PI3K-δ is above 21 fold.

Consider `N#CCc1ccc(Nc2ncnc3ccc(-c4ccncc4)cc23)cc1` [Compound 28, 6-(pyridin-4-yl)-4-(4-cyanomethyl)phenylamino-quinazoline], for which the IC50 in the experiment on HL-60 (leukemia) cells worked out at 32 µM; in experiment [1], 32 µM; on PI3K-γ, 0.36 µM; in experiment [2], 76 µM; at PI3K-α, 0.704 µM; with A-375 (melanoma) cells it was 35 µM. Also, the figures for the half-inhibitory concentration (IC50) (in experiment [3]; on PI3K-β; on PI3K-δ) were 39 µM, above 10 µM and above 10 µM, respectively. For the same molecule, the “Fold-selectivity for PI3K-α … -γ” value on PI3K-γ amounted to 0.5 fold. Moreover, at PI3K-α, the “% Inhibition of PI3K-α at 0.5 μM” value is given as 45.6%. For the same molecule, the inhibition at 0.5 µM against PI3K-α is above 40%. For the same molecule, the “Fold-selectivity for PI3K-α … -β” value on PI3K-β is given as above 14.2 fold. Also, the “Fold-selectivity for PI3K-α … -δ” value at PI3K-δ was above 14.2 fold.

These data come from patent US10202374B2, “6-aryl-4-phenylamino-quinazoline analogs as phosphoinositide-3-kinase inhibitors” (COUNCIL OF SCIENTIFIC & INDUSTRIAL RESEARCH, priority 2014, dated 2019).
